Assay results published in patent publication US20110165277A1, “Biological Materials and Uses Thereof” (priority 2008, published 2011).
“And” between values parts separate entries of the source, which are not always exact repeats. Equal values may be shown once.

Tests used:
[1] = tested on: Listeria monocytogenes; assay: Listeria survival in Rusitec (Example 5); format: cell-based; details: 100 μg/ml; 24h after pathogen addition
Description: Volatile fatty acids, methane and bacterial numbers were measured on days 18 and 19 of the experiment. On day 19, Listeria inocula was added and it numbers traced over the last 24 hr of the experiment.

[2] = Further sandalwood analogues: volatile fatty acid and methane production (Example 7, Table 14); format: cell-based
Description: (§1) Further testing of sandalwood analogues was conducted following the protocols described in Examples 3 and 5.

[3] = tested on: rumen contents in Rusitec; assay: Rusitec with Sandalwood oil and Javanol (Example 5); format: cell-based, cattle; details: 100 μg/ml
Description: The rumen-simulation technique (Rusitec) was used as described by Czerkawski and Breckenridge (1977). The nominal volume in each reaction vessel was 850 ml and the dilution rate was set at 0.88 per day, the infused liquid being artificial saliva (McDougall, Biochem J 1948 43, 99-109) at pH 8.4. Inocula for the fermentation vessels were obtained from a pooled sample (liquid and particulate rumen contents) from three rumen-cannulated cattle fed on a conserved diet. On the first day of the experiment 300 ml of strained rumen fluid, 300 ml of water and 300 ml of artificial saliva were placed in each reaction vessel. Solid rumen contents (80 g) were weighed into a nylon bag and one of these was placed inside the food container in each vessel together with a bag (20 g/d) of a basal diet of grass hay, barley, molasses, soyabean meal and a vitamin and mineral mixture. The food was provided in nylon bags, pore size 50 μm, which were gently agitated in the liquid phase. Two bags were present at any time and one bag was replaced each day to give a 48 h incubation. The bags that were removed from the vessels were placed in plastic bags, and their contents washed and squeezed with 40 ml of artificial saliva. This was done twice for each bag, and the combined washings were poured back into the reaction vessels. Fermentation vessels were flushed with anaerobic grade CO2 before filling, after filling, and then every day during feeding (when the nylon bags with the food were changed). The duration of the experiment was 19 days, during which four vessels received Sandalwood oil (added the basal diet to reach an initial concentration of 100 μg/ml) four vessels received Javanol (added the basal diet to reach an initial concentration of 100 μg/ml) the remaining vessels were controls. Volatile fatty acids, methane and bacterial numbers were measured on days 18 and 19 of the experiment. On day 19, Listeria inocula was added and it numbers traced over the last 24 hr of the experiment.

[4] = tested on: rumen fluid; assay: Methane production by buffered rumen fluid, sandalwood oil and synthetic replacements (Example 4); format: cell-based, cow; details: 5, 50 or 100 or 500 pg/ml; 16 hours
Description: Thirty ml of a 33% buffered solution of rumen fluid withdrawn from a rumen canulated cow was incubated with 0.3 g of a 50:50 hay barley mix at 39° C. under anaerobic conditions
After 16 hours the volume of gas produced and the percentage of methane in the headspace was measured and the resultant fermentation fluid was analysed for volatile fatty acids by HPLC.
Sandalwood oil from either Fluka or SAFC and two different batches of Javanol (Givaudan) or a single batch of Santaliff (International Flavors & Fragrances) (both Javanol and Santaliff are artifical Sandalwood replacements) were added in the amount of 5, 50 or 100 or 500 pg/ml to the 30 ml buffered solution of rumen fluid prior to incubation.

[5] = Further sandalwood analogues: CH4 per bottle, compound in DMSO or ETOH (Example 7, Table 15); format: cell-based; details: for CH4: single bottles rep a, b, c, listed as Javanol batch no. 9000699712
Description: as §1

| SMILES | Acetate ([2]; 5 μg/ml) | Butyrate ([2]; 5 μg/ml) | Methane ([2]; 5 μg/ml) | Propionate ([2]; 5 μg/ml) | TVFA ([2]; 5 μg/ml) | Acetate ([2]; 50 μg/ml) | Butyrate ([2]; 50 μg/ml) | Methane ([2]; 50 μg/ml) | Propionate ([2]; 50 μg/ml) | TVFA ([2]; 50 μg/ml) | Acetate ([2]; 100 μg/ml) | Butyrate ([2]; 100 μg/ml) | Methane ([2]; 100 μg/ml) | Propionate ([2]; 100 μg/ml) | TVFA ([2]; 100 μg/ml) | Acetate ([2]; 500 μg/ml) | Butyrate ([2]; 500 μg/ml) | Methane ([2]; 500 μg/ml) | Propionate ([2]; 500 μg/ml) | TVFA ([2]; 500 μg/ml) | also measured |
| --- | --- | --- | --- | --- | --- | --- | --- | --- | --- | --- | --- | --- | --- | --- | --- | --- | --- | --- | --- | --- | --- |
| CC1(CO)CC1CC1CC2CC2(C)C1(C)C (stereo not shown) [Javanol, (1-Methyl-2-(1,2,2-trimethylbicyclo[3.1.0]hex-3-ylmethyl)cyclopropyl)methanol] | 2401 μmol/g of feed added | 538 μmol/g of feed added | 978 μmol/g of feed added | 493 μmol/g of feed added | 3432 μmol/g of feed added | 2622 μmol/g of feed added | 593 μmol/g of feed added | 904 μmol/g of feed added | 524 μmol/g of feed added | 3739 μmol/g of feed added | 2504 μmol/g of feed added | 499 μmol/g of feed added | 859 μmol/g of feed added | 542 μmol/g of feed added | 3545 μmol/g of feed added | 2045 μmol/g of feed added | 229 μmol/g of feed added | 744 μmol/g of feed added | 833 μmol/g of feed added | 3107 μmol/g of feed added | Listeria monocytogenes survival [1]: not; 48 h DM degradation (%) [3]: 33.6%; Acetate [3]: 23.9 mmol/day; Bacteria counts Cellulolytic [3]: 1.9e+06 mL⁻¹; Bacteria counts Total [3]: 4.9e+09 mL⁻¹; Butyrate [3]: 4.4 mmol/day; Methane production [3]: decreased; Propionate [3]: 16.7 mmol/day; Total VFA [3]: 45.0 mmol/day; VFA production [3]: no effect; CH4 ([3]; days 18 and 19): 2.51 mmol/day; methane compared to the control experiments [4]: significantly decreased; CH4 (mean of rep a-c) ([5]; 150 ug/30 ml in 200 ul DMSO): 913.6635 µmol/g; CH4 ([5]; 150 ug/30 ml in 200 ul DMSO): 956.9591 µmol/g and 888.4071 µmol/g and 895.6242 µmol/g; CH4 (mean of rep a-c) ([5]; 150 ug/30 ml in 200 ul ETOH): 1373.522 µmol/g; CH4 ([5]; 150 ug/30 ml in 200 ul ETOH): 1403.051 µmol/g and 1381.609 µmol/g and 1335.905 µmol/g; CH4 (mean of rep a-c) ([5]; 15000 ug/30 ml in 200 ul DMSO): 605.2838 µmol/g; CH4 ([5]; 15000 ug/30 ml in 200 ul DMSO): 647.283 µmol/g and 563.0216 µmol/g and 605.5467 µmol/g; CH4 (mean of rep a-c) ([5]; 15000 ug/30 ml in 200 ul ETOH): 1158.255 µmol/g; CH4 ([5]; 15000 ug/30 ml in 200 ul ETOH): 1145.346 µmol/g and 1230.103 µmol/g and 1099.314 µmol/g |
| CC(=CCC1CC=C(C)C1(C)C)CO (stereo not shown) [Santaliff, 2-Methyl-4-(2,2,3-trimethyl-3-cyclopenten-1-yl)-2-buten-1-ol] | 2174 μmol/g of feed added | 458 μmol/g of feed added | 1031 μmol/g of feed added | 466 μmol/g of feed added | 3098 μmol/g of feed added | 2142 μmol/g of feed added | 490 μmol/g of feed added | 1052 μmol/g of feed added | 442 μmol/g of feed added | 3074 μmol/g of feed added | 2301 μmol/g of feed added | 462 μmol/g of feed added | 844 μmol/g of feed added | 543 μmol/g of feed added | 3305 μmol/g of feed added | 2101 μmol/g of feed added | 296 μmol/g of feed added | 801 μmol/g of feed added | 741 μmol/g of feed added | 3138 μmol/g of feed added | methane compared to the control experiments [4]: significantly decreased |
